Measurements: ChEMBL document CHEMBL3217515, “Synthesis and biological evaluation of 2,3-bis(het)aryl-4-azaindole derivatives as protein kinase inhibitors” (Medchemcomm, 2011)

Assays:
[1] = biological target: RAF proto-oncogene serine/threonine-protein kinase (Homo sapiens, UniProt P04049); assay: Inhibition of RAF1 (unknown origin)
[2] = biological target: Dual specificity tyrosine-phosphorylation-regulated kinase 1A (Homo sapiens, UniProt Q13627); assay: Inhibition of DYRK1A (unknown origin)
[3] = biological target: Cyclin-dependent kinase 5 (Homo sapiens, UniProt Q00535); assay: Inhibition of CDK5 (unknown origin)
[4] = biological target: Glycogen synthase kinase-3 beta (Homo sapiens, UniProt P49841); assay: Inhibition of GSK3beta (unknown origin)
Glycogen synthase kinase-3 beta, sequence (P49841 whole entry): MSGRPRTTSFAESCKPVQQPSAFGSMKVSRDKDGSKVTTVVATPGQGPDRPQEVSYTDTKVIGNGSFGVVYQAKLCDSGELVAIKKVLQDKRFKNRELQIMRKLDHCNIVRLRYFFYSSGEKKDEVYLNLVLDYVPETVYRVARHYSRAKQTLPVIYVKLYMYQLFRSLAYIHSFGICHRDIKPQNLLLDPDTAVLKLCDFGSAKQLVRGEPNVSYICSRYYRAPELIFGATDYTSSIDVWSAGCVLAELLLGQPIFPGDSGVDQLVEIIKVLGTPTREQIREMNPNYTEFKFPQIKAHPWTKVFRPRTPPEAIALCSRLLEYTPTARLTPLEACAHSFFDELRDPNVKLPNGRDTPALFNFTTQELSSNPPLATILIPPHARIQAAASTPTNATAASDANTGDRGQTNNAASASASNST

RAF proto-oncogene serine/threonine-protein kinase, sequence (P04049 whole entry): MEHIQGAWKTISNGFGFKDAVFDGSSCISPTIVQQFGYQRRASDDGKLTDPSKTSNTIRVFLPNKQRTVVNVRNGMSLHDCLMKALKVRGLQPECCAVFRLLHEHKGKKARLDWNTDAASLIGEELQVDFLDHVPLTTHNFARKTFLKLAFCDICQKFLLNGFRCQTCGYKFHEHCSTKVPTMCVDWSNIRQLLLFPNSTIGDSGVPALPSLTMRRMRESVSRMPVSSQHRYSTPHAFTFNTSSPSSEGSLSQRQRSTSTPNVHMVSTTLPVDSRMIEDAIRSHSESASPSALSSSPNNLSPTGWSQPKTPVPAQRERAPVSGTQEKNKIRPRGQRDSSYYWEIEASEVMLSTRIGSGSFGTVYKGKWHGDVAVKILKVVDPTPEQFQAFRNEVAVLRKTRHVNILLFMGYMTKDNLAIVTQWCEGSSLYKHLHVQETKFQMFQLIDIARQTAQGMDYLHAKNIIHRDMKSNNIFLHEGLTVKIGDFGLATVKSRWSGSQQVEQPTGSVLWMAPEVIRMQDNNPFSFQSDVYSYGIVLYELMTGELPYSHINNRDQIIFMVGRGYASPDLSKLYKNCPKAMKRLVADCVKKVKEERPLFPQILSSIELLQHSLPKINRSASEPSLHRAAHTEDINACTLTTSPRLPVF
Cyclin-dependent kinase 5, sequence (Q00535 whole entry): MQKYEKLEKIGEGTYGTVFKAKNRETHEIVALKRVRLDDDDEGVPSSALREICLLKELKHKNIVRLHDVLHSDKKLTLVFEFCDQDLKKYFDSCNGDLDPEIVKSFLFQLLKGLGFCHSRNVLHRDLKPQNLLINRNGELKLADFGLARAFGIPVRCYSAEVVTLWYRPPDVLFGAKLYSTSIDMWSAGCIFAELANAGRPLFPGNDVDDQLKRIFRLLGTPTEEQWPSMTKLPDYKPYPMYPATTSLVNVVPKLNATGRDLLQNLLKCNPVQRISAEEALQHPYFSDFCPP

Row | Compound | IC50 [1] [µM] | IC50 [2] [nM] | IC50 [3] [µM] | IC50 [4] [µM]
1 | COc1ccc2[nH]c(-c3ccccc3)c(-c3ccncc3)c2n1 | 3.2 | 1300 | > 10 | > 10
2 | COc1ccc2[nH]c(-c3ccc(O)cc3)c(-c3ccncc3)c2n1 | 1.3 | 470 | > 10 | > 10
3 | COc1ccc2[nH]c(-c3ccc4cc(O)ccc4c3)c(-c3ccncc3)c2n1 | > 50 | 840 | > 10 | > 10
4 | COc1ccc2[nH]c(-c3cc(O)cc(O)c3)c(-c3ccncc3)c2n1 | > 50 | > 10000 | > 10 | > 10
5 | COc1ccc2[nH]c(-c3cccc(O)c3)c(-c3ccccn3)c2n1 | 9.2 | > 10000 | > 10 | > 10

Second part, the compound after the results:

Row | IC50 [1] [µM] | IC50 [2] [nM] | IC50 [3] [µM] | IC50 [4] [µM] | Compound
6 | – | 230 | > 10 | > 10 | COc1ccc2[nH]c(-c3ccccc3O)c(-c3ccncc3)c2n1
7 | 0.286 | 700 | > 10 | > 10 | COc1ccc2[nH]c(-c3cccc(O)c3)c(-c3ccncc3)c2n1
8 | 4.3 | 1800 | > 10 | > 10 | COc1ccc2[nH]c(-c3cccc(F)c3)c(-c3ccncc3)c2n1
9 | 16.5 | > 10000 | > 10 | > 10 | COc1ccc2[nH]c(-c3cccc(O)c3)c(-c3cccnc3)c2n1
